From PubChem BioAssay (NCI)
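The concentration for 50% growth inhibition is given as GI50. At the TGI there is no net growth.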

Assays:
Experiment in all cases: NCI tumour cell line growth inhibition, 384-well format
DU-145 prostate = tested on: DU-145 prostate
KM12 colon = tested on: KM12 colon
SK-MEL-28 melanoma = tested on: SK-MEL-28 melanoma
MDA-MB-468 breast = tested on: MDA-MB-468 breast
HCC-2998 colon = tested on: HCC-2998 colon
LOX IMVI melanoma = tested on: LOX IMVI melanoma
SF-539 CNS = tested on: SF-539 CNS
M14 melanoma = tested on: M14 melanoma
T-47D breast = tested on: T-47D breast
CCRF-CEM leukemia = tested on: CCRF-CEM leukemia
SR leukemia = tested on: SR leukemia
OVCAR-3 ovarian = tested on: OVCAR-3 ovarian
HOP-62 NSCLC = tested on: HOP-62 NSCLC
SN12C renal = tested on: SN12C renal
OVCAR-5 ovarian = tested on: OVCAR-5 ovarian
MDA-MB-435 melanoma = tested on: MDA-MB-435 melanoma
A549 NSCLC = tested on: A549 NSCLC
HCT-15 colon = tested on: HCT-15 colon
SK-OV-3 ovarian = tested on: SK-OV-3 ovarian
A498 renal = tested on: A498 renal
COLO 205 colon = tested on: COLO 205 colon
SNB-75 CNS = tested on: SNB-75 CNS
NCI-H522 lung = tested on: NCI-H522 lung
K-562 leukemia = tested on: K-562 leukemia
HL-60(TB) leukemia = tested on: HL-60(TB) leukemia
SW-620 colon = tested on: SW-620 colon
OVCAR-4 ovarian = tested on: OVCAR-4 ovarian
HT29 colon = tested on: HT29 colon
NCI-H322M lung = tested on: NCI-H322M lung
HCT-116 colon = tested on: HCT-116 colon
IGROV1 ovarian = tested on: IGROV1 ovarian
SK-MEL-2 melanoma = tested on: SK-MEL-2 melanoma
RXF 393 renal = tested on: RXF 393 renal
NCI-H23 lung = tested on: NCI-H23 lung
MDA-MB-231 breast = tested on: MDA-MB-231 breast
TK-10 renal = tested on: TK-10 renal
UACC-62 melanoma = tested on: UACC-62 melanoma
MCF7 breast = tested on: MCF7 breast
RPMI-8226 leukemia = tested on: RPMI-8226 leukemia
SF-295 CNS = tested on: SF-295 CNS
NCI-H226 lung = tested on: NCI-H226 lung
SK-MEL-5 melanoma = tested on: SK-MEL-5 melanoma
PC-3 prostate = tested on: PC-3 prostate
BT-549 breast = tested on: BT-549 breast
NCI/ADR-RES ovarian = tested on: NCI/ADR-RES ovarian
SNB-19 CNS = tested on: SNB-19 CNS
EKVX NSCLC = tested on: EKVX NSCLC
SF-268 CNS = tested on: SF-268 CNS
786-0 renal = tested on: 786-0 renal
HOP-92 NSCLC = tested on: HOP-92 NSCLC
MOLT-4 leukemia = tested on: MOLT-4 leukemia
HS 578T breast = tested on: HS 578T breast
ACHN renal = tested on: ACHN renal
MALME-3M melanoma = tested on: MALME-3M melanoma
U251 glioblastoma = tested on: U251 glioblastoma
UACC-257 melanoma = tested on: UACC-257 melanoma
CAKI-1 renal = tested on: CAKI-1 renal
OVCAR-8 ovarian = tested on: OVCAR-8 ovarian
NCI-H460 NSCLC = tested on: NCI-H460 NSCLC

With `Cc1ccncc1N1CCN(c2ccnc(Cl)c2)C1=O` the GI50 (DU-145 prostate) was greater than 100 µM, the TGI (DU-145 prostate) was greater than 100 µM and the GI50 (KM12 colon) was greater than 100 µM. The TGI (KM12 colon) was greater than 100 µM, the GI50 (SK-MEL-28 melanoma) was greater than 100 µM and the TGI (SK-MEL-28 melanoma) was greater than 100 µM. It also gave a GI50 (MDA-MB-468 breast) greater than 100 µM, a TGI (MDA-MB-468 breast) greater than 100 µM and a GI50 (HCC-2998 colon) greater than 100 µM. It also gave a TGI (HCC-2998 colon) greater than 100 µM, a GI50 (LOX IMVI melanoma) greater than 100 µM and a TGI (LOX IMVI melanoma) greater than 100 µM. The GI50 (SF-539 CNS) was greater than 100 µM, the TGI (SF-539 CNS) was greater than 100 µM and the GI50 (M14 melanoma) was greater than 100 µM. For the same compound, the TGI (M14 melanoma) was greater than 100 µM, the GI50 (T-47D breast) was greater than 100 µM and the TGI (T-47D breast) was greater than 100 µM. The GI50 (CCRF-CEM leukemia) was greater than 100 µM, the TGI (CCRF-CEM leukemia) was greater than 100 µM and the GI50 (SR leukemia) was greater than 100 µM. It also gave a TGI (SR leukemia) greater than 100 µM, a GI50 (OVCAR-3 ovarian) greater than 100 µM and a TGI (OVCAR-3 ovarian) greater than 100 µM. For the same compound, the GI50 (HOP-62 NSCLC) was greater than 100 µM, the TGI (HOP-62 NSCLC) was greater than 100 µM and the GI50 (SN12C renal) was greater than 100 µM. For the same compound, the TGI (SN12C renal) was greater than 100 µM, the GI50 (OVCAR-5 ovarian) was greater than 100 µM and the TGI (OVCAR-5 ovarian) was greater than 100 µM. For the same compound, the GI50 (MDA-MB-435 melanoma) was greater than 100 µM, the TGI (MDA-MB-435 melanoma) was greater than 100 µM and the GI50 (A549 NSCLC) was greater than 100 µM. The TGI (A549 NSCLC) was greater than 100 µM, the GI50 (HCT-15 colon) was greater than 100 µM and the TGI (HCT-15 colon) was greater than 100 µM. It also gave a GI50 (SK-OV-3 ovarian) greater than 100 µM, a TGI (SK-OV-3 ovarian) greater than 100 µM and a GI50 (A498 renal) greater than 100 µM. For the same compound, the TGI (A498 renal) was greater than 100 µM, the GI50 (COLO 205 colon) was greater than 100 µM and the TGI (COLO 205 colon) was greater than 100 µM. The GI50 (SNB-75 CNS) was greater than 100 µM, the TGI (SNB-75 CNS) was greater than 100 µM and the GI50 (NCI-H522 lung) was greater than 100 µM. For the same compound, the TGI (NCI-H522 lung) was greater than 100 µM, the GI50 (K-562 leukemia) was greater than 100 µM and the TGI (K-562 leukemia) was greater than 100 µM. For the same compound, the GI50 (HL-60(TB) leukemia) was greater than 100 µM, the TGI (HL-60(TB) leukemia) was greater than 100 µM and the GI50 (SW-620 colon) was greater than 100 µM. The TGI (SW-620 colon) was greater than 100 µM, the GI50 (OVCAR-4 ovarian) was greater than 100 µM and the TGI (OVCAR-4 ovarian) was greater than 100 µM. It also gave a GI50 (HT29 colon) greater than 100 µM, a TGI (HT29 colon) greater than 100 µM and a GI50 (NCI-H322M lung) greater than 100 µM. For the same compound, the TGI (NCI-H322M lung) was greater than 100 µM, the GI50 (HCT-116 colon) was greater than 100 µM and the TGI (HCT-116 colon) was greater than 100 µM. It also gave a GI50 (IGROV1 ovarian) greater than 100 µM, a TGI (IGROV1 ovarian) greater than 100 µM and a GI50 (SK-MEL-2 melanoma) greater than 100 µM. It also gave a TGI (SK-MEL-2 melanoma) greater than 100 µM, a GI50 (RXF 393 renal) greater than 100 µM and a TGI (RXF 393 renal) greater than 100 µM. For the same compound, the GI50 (NCI-H23 lung) was greater than 100 µM, the TGI (NCI-H23 lung) was greater than 100 µM and the GI50 (MDA-MB-231 breast) was greater than 100 µM. The TGI (MDA-MB-231 breast) was greater than 100 µM, the GI50 (TK-10 renal) was greater than 100 µM and the TGI (TK-10 renal) was greater than 100 µM. The GI50 (UACC-62 melanoma) was greater than 100 µM, the TGI (UACC-62 melanoma) was greater than 100 µM and the GI50 (MCF7 breast) was greater than 100 µM. It also gave a TGI (MCF7 breast) greater than 100 µM, a GI50 (RPMI-8226 leukemia) greater than 100 µM and a TGI (RPMI-8226 leukemia) greater than 100 µM. It also gave a GI50 (SF-295 CNS) greater than 100 µM, a TGI (SF-295 CNS) greater than 100 µM and a GI50 (NCI-H226 lung) greater than 100 µM. The TGI (NCI-H226 lung) was greater than 100 µM, the GI50 (SK-MEL-5 melanoma) was greater than 100 µM and the TGI (SK-MEL-5 melanoma) was greater than 100 µM. For the same compound, the GI50 (PC-3 prostate) was greater than 100 µM, the TGI (PC-3 prostate) was greater than 100 µM and the GI50 (BT-549 breast) was greater than 100 µM. It also gave a TGI (BT-549 breast) greater than 100 µM, a GI50 (NCI/ADR-RES ovarian) greater than 100 µM and a TGI (NCI/ADR-RES ovarian) greater than 100 µM. For the same compound, the GI50 (SNB-19 CNS) was greater than 100 µM, the TGI (SNB-19 CNS) was greater than 100 µM and the GI50 (EKVX NSCLC) was greater than 100 µM. The TGI (EKVX NSCLC) was greater than 100 µM, the GI50 (SF-268 CNS) was greater than 100 µM and the TGI (SF-268 CNS) was greater than 100 µM. It also gave a GI50 ([…]-0 renal) greater than 100 µM, a TGI (786-0 renal) greater than 100 µM and a GI50 (HOP-92 NSCLC) greater than 100 µM. It also gave a TGI (HOP-92 NSCLC) greater than 100 µM, a GI50 (MOLT-4 leukemia) greater than 100 µM and a TGI (MOLT-4 leukemia) greater than 100 µM. The GI50 (HS 578T breast) was greater than 100 µM, the TGI (HS 578T breast) was greater than 100 µM and the GI50 (ACHN renal) was greater than 100 µM. For the same compound, the TGI (ACHN renal) was greater than 100 µM, the GI50 (MALME-3M melanoma) was greater than 100 µM and the TGI (MALME-3M melanoma) was greater than 100 µM. It also gave a GI50 (U251 glioblastoma) greater than 100 µM, a TGI (U251 glioblastoma) greater than 100 µM and a GI50 (UACC-257 melanoma) greater than 100 µM. For the same compound, the TGI (UACC-257 melanoma) was greater than 100 µM, the GI50 (CAKI-1 renal) was greater than 100 µM and the TGI (CAKI-1 renal) was greater than 100 µM. It also gave a GI50 (OVCAR-8 ovarian) greater than 100 µM, a TGI (OVCAR-8 ovarian) greater than 100 µM and a GI50 (NCI-H460 NSCLC) greater than 100 µM. The TGI (NCI-H460 NSCLC) was greater than 100 µM.
